What was measured:
[1] = tested on: NdmC
[2] = target: T1, Caffeine dehydrogenase (Cdh) from CBB1 (Pseudomonas sp., UniProt D7REY3); conditions: cited from earlier work
T1 sequence (D7REY3 1-791): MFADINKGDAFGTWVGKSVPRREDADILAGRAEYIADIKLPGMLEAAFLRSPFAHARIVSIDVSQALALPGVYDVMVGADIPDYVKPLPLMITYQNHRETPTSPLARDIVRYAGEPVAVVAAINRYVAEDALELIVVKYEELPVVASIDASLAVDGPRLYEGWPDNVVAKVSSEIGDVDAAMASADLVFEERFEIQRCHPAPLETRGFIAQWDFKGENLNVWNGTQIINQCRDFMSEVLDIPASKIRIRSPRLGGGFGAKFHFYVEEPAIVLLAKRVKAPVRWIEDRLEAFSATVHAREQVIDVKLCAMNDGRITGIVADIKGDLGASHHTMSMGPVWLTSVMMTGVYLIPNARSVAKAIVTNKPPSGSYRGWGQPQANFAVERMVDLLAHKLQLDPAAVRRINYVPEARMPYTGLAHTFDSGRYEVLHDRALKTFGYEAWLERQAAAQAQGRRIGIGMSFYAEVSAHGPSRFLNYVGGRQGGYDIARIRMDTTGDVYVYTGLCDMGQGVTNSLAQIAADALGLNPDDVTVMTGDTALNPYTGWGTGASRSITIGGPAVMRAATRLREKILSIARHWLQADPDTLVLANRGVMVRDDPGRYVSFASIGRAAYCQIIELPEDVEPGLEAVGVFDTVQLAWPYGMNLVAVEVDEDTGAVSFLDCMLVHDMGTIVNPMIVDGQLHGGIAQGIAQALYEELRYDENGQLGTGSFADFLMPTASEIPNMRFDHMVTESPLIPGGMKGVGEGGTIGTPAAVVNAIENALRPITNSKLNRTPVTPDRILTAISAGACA
T1 sequence (D7REY4 1-295 partner): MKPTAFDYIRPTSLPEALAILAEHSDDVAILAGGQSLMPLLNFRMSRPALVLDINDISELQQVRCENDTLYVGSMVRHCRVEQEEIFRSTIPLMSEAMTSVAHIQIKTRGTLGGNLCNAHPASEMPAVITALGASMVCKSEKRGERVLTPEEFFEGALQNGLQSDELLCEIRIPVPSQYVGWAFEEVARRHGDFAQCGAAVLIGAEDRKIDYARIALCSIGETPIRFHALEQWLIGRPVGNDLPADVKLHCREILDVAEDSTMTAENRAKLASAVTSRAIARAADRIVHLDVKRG
T1 sequence (D7REY5 1-167 partner): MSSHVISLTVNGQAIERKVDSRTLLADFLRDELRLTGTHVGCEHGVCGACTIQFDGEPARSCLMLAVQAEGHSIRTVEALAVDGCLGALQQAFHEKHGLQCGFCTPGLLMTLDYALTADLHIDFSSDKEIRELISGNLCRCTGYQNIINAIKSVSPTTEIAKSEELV

[3] = target: T2, NdmA-His6 (Pseudomonas putida, UniProt H9N289); assay: Methylxanthine N-demethylase assay and kinetics, NdmA-His6 with His6-NdmD; type: biochemical, Pseudomonas putida CBB5
T2 construct: made in house; host or cells: E. coli BL21(DE3)
T2 sequence (H9N289 1-351): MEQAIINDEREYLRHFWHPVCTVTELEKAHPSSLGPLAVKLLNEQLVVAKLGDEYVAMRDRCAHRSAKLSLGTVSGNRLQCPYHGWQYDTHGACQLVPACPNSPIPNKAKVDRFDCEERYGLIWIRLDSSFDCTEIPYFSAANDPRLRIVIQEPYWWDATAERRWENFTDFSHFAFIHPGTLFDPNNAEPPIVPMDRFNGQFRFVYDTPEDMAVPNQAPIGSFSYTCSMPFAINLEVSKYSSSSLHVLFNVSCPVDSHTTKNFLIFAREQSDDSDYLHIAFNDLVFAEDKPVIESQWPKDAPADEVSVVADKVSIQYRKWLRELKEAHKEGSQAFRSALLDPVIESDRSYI
Protocol: Methylxanthine N-demethylase activity assay contained, in 1-ml total volume, 0.5 mM methylxanthine, 1 mM NADH, 50 μM Fe(NH4)2(SO4)2, and an appropriate amount of NdmA-His6 or NdmB-His6 (7.4 μg-2.5 mg protein depending on substrate specificity) in 50 mM KPi buffer (pH 7.5). Approximately 4 U of partially purified reductase, prepared as described previously (Summers et al., 2011) or 59 U of purified His6-NdmD was added to reaction mixture. Catalase from bovine liver (4,000 U) was also added to reactions containing His6-NdmD. The reaction mixture was incubated at 30° C. with 300 rpm shaking on an incubating microplate shaker (VWR, Radnor, Pa.). Periodically, a small aliquot was sampled from the reaction mixture and mixed with equal volume of acetonitrile for quantifying concentrations of methylxanthines and N-demethylated products by HPLC. One unit of N-demethylase activity was defined as the consumption of one […] methylxanthine per minute.
Apparent kinetic parameters of NdmA-His6 and NdmB-His6 were determined by measuring the initial rate of disappearance (vo) of methylxanthines in 50 mM KPi buffer (pH 7.5) at 30° C. The initial substrate concentrations (ESI) used in these experiments were from 25 to 500 μM. Substrates were incubated with His6-NdmD plus either NdmA-His6 or NdmB-His6 under standard conditions for 15 minutes. At 1, 5, 10, and 15 minutes, samples were removed from the reaction mixtures to quantitate substrate concentrations by HPLC. Plots of substrate concentrations against time were used to determine the initial rates of disappearance of substrates which were linear over 15 minutes. The apparent kinetic parameters were determined from Michaelis-Menten plots of vo against [S] fitted with the equation

SMILES: Cn1cnc2c1c(=O)[nH]c(=O)n2C [Theobromine, 3,7-dimethylxanthine]
- N-demethylation by NdmC fraction [1]: not N-demethylated
- preference as a substrate, times less than caffeine [2]: 50 times
- N-demethylase activity ([3]; NdmA): inactive
- Km ([3]; NdmA-His6, 30° C., pH 7.5, ∞ where no activity): ∞
